According to ChEMBL document CHEMBL3045385, “Design, synthesis and molecular modelling of novel 4-thiazolidinones of potential activity against Gram positive bacteria” (2013):
Values after ≈ are worked out from the molar mass of the structure shown. Active and inactive are the calls of the source. The calls are words filed in the database; no cut-off is given here.

Columns and labels:
[1] = system: Mycobacterium tuberculosis; assay: Antimycobacterium activity against Mycobacterium tuberculosis H37Rv at 100 ug/ml by Microplate Alamar Blue Assay; type: functional, organism-based
Escherichia coli [2] = assay: Antibacterial activity against Escherichia coli ATCC 25922 at 6.25 to 100 ug/ml after 24 hr by two-fold serial dilution method; type: functional, organism-based
Shigella sonnei [3] = assay: Antibacterial activity against Shigella sonnei ATCC 11060 at 6.25 to 100 ug/ml after 24 hr by two-fold serial dilution method; type: functional, organism-based
Bacillus subtilis [4] = assay: Antibacterial activity against Bacillus subtilis ATCC 10400 at 6.25 to 100 ug/ml after 24 hr by two-fold serial dilution method; type: functional, organism-based
Staphylococcus aureus [5] = assay: Antibacterial activity against Staphylococcus aureus ATCC 25293 at 6.25 to 100 ug/ml after 24 hr by two-fold serial dilution method; type: functional, organism-based
Salmonella typhimurium [6] = assay: Antibacterial activity against Salmonella enterica subsp. enterica serovar Typhimurium at 6.25 to 100 ug/ml after 24 hr by two-fold serial dilution method; type: functional, organism-based
Candida albicans [7] = assay: Antifungal activity against Candida albicans ATCC 10231 at 6.25 to 100 ug/ml after 7 days by two-fold serial dilution method; type: functional, organism-based
Pseudomonas aeruginosa [8] = assay: Antibacterial activity against Pseudomonas aeruginosa ATCC 27855 at 6.25 to 100 ug/ml after 24 hr by two-fold serial dilution method; type: functional, organism-based
Staphylococcus aureus [9] = assay: Antibacterial activity against Staphylococcus aureus ATCC 25293 after 24 hr by two-fold serial dilution method; type: functional; conditions: ATCC 25293, 24 h
Bacillus subtilis [10] = assay: Antibacterial activity against Bacillus subtilis ATCC 10400 after 24 hr by two-fold serial dilution method; type: functional; conditions: ATCC 10400, 24 h
Salmonella typhimurium [11] = assay: Antibacterial activity against Salmonella enterica subsp. enterica serovar Typhimurium after 24 hr by two-fold serial dilution method; type: functional
Escherichia coli [12] = assay: Antibacterial activity against Escherichia coli ATCC 25922 after 24 hr by two-fold serial dilution method; type: functional; conditions: ATCC 25922, 24 h
Shigella sonnei [13] = assay: Antibacterial activity against Shigella sonnei ATCC 11060 after 24 hr by two-fold serial dilution method; type: functional; conditions: ATCC 11060, 24 h
Candida albicans [14] = assay: microbe, parasite or virus in culture; conditions: ATCC 10231, 168 h
Description: Antifungal activity against Candida albicans ATCC 10231 after 7 days by two-fold serial dilution method

Pseudomonas aeruginosa [15] = assay: Antibacterial activity against Pseudomonas aeruginosa ATCC 27855 after 24 hr by two-fold serial dilution method; type: functional; conditions: ATCC 27855, 24 h

Structure (SMILES) | Activity [1] | Activity (Escherichia coli [2]) | Activity (Shigella sonnei [3]) | Activity (Bacillus subtilis [4]) | Activity (Staphylococcus aureus [5]) | Activity (Salmonella typhimurium [6]) | Activity (Candida albicans [7]) | Activity (Pseudomonas aeruginosa [8]) | MIC (Staphylococcus aureus [9]) [µg/mL] | MIC (Bacillus subtilis [10]) [µg/mL] | MIC (Salmonella typhimurium [11]) [µg/mL] | MIC (Escherichia coli [12]) [µg/mL] | MIC (Shigella sonnei [13]) [µg/mL] | MIC (Candida albicans [14]) [µg/mL] | MIC (Pseudomonas aeruginosa [15]) [µg/mL]
CC(Oc1cc(Cl)c(Cl)cc1Cl)C(=O)N/N=C\c1ccncc1 (configuration not stated) | inactive | inactive | inactive | inactive | inactive | inactive | inactive | inactive | – | – | – | – | – | – | –
Cc1ccc(/C=N\NC(=O)C(C)Oc2cc(Cl)c(Cl)cc2Cl)o1 (configuration not stated) | inactive | inactive | inactive | inactive | inactive | inactive | inactive | inactive | – | – | – | – | – | – | –
C/C(=N/NC(=O)C(C)Oc1cc(Cl)c(Cl)cc1Cl)c1ccc(C)cc1 (configuration not stated) | inactive | inactive | inactive | inactive | inactive | inactive | inactive | inactive | – | – | – | – | – | – | –
CC(Oc1cc(Cl)c(Cl)cc1Cl)C(=O)NN1C(=O)CSC1(C)c1ccc(Cl)cc1 (configuration not stated) | inactive | inactive | inactive | – | – | inactive | inactive | inactive | 12.5 (≈ 25.3 µM) | 12.5 (≈ 25.3 µM) | – | – | – | – | –
O=C(N[C@H](CO)[C@H](O)c1ccc([N+](=O)[O-])cc1)C(Cl)Cl [CHLORAMPHENICOL] | – | – | – | – | – | – | – | – | 6.25 (≈ 19.3 µM) | 6.25 (≈ 19.3 µM) | 25 (≈ 77.4 µM) | 12.5 (≈ 38.7 µM) | 25 (≈ 77.4 µM) | – | –
CC(Oc1cc(Cl)c(Cl)cc1Cl)C(=O)N/N=C\c1cccnc1 (configuration not stated) | inactive | inactive | inactive | inactive | inactive | inactive | inactive | inactive | – | – | – | – | – | – | –
C/C(=N/NC(=O)C(C)Oc1cc(Cl)c(Cl)cc1Cl)c1ccc(Cl)cc1 (configuration not stated) | inactive | inactive | inactive | inactive | inactive | inactive | inactive | inactive | – | – | – | – | – | – | –
Cc1ccc(C2(C)SCC(=O)N2NC(=O)C(C)Oc2cc(Cl)c(Cl)cc2Cl)cc1 (configuration not stated) | inactive | inactive | inactive | – | – | inactive | inactive | inactive | 12.5 (≈ 26.4 µM) | 6.25 (≈ 13.2 µM) | – | – | – | – | –
CC(Oc1cc(Cl)c(Cl)cc1Cl)C(=O)NN1C(=O)CSC1c1cccs1 (configuration not stated) | inactive | inactive | inactive | – | – | inactive | inactive | inactive | 6.25 (≈ 13.8 µM) | 6.25 (≈ 13.8 µM) | – | – | – | – | –
Cc1ccc(C2SCC(=O)N2NC(=O)C(C)Oc2cc(Cl)c(Cl)cc2Cl)o1 (configuration not stated) | inactive | inactive | inactive | – | – | inactive | inactive | inactive | 12.5 (≈ 27.8 µM) | 12.5 (≈ 27.8 µM) | – | – | – | – | –
CC(Oc1cc(Cl)c(Cl)cc1Cl)C(=O)NN1C(=O)CSC1c1cccc([N+](=O)[O-])c1 (configuration not stated) | inactive | inactive | inactive | – | – | inactive | inactive | inactive | 12.5 (≈ 25.5 µM) | 12.5 (≈ 25.5 µM) | – | – | – | – | –
Cc1ccc(/C=N\NC(=O)C(C)Oc2cc(Cl)c(Cl)cc2Cl)s1 (configuration not stated) | inactive | inactive | inactive | inactive | inactive | inactive | inactive | inactive | – | – | – | – | – | – | –
C#CCN1C(=O)/C(=N/NC(=O)C(C)Oc2cc(Cl)c(Cl)cc2Cl)c2ccccc21 (configuration not stated) | inactive | inactive | inactive | inactive | inactive | inactive | inactive | inactive | – | – | – | – | – | – | –
Clc1ccc(COC(Cn2ccnc2)c2ccc(Cl)cc2Cl)c(Cl)c1 (configuration not stated) [MICONAZOLE] | – | – | – | – | – | – | – | – | – | – | – | – | – | 3.12 (≈ 7.5 µM) | 3.12 (≈ 7.5 µM)
CC(Oc1cc(Cl)c(Cl)cc1Cl)C(=O)N/N=C\c1cccc([N+](=O)[O-])c1 (configuration not stated) | inactive | inactive | inactive | inactive | inactive | inactive | inactive | inactive | – | – | – | – | – | – | –
CC(Oc1cc(Cl)c(Cl)cc1Cl)C(=O)NN1C(=O)CSC1c1cccnc1 (configuration not stated) | inactive | inactive | inactive | – | – | inactive | inactive | inactive | 6.25 (≈ 14 µM) | 12.5 (≈ 28 µM) | – | – | – | – | –
CC(Oc1cc(Cl)c(Cl)cc1Cl)C(=O)N/N=C\c1cccs1 (configuration not stated) | inactive | inactive | inactive | inactive | inactive | inactive | inactive | inactive | – | – | – | – | – | – | –
C#CCN1C(=O)C2(SCC(=O)N2NC(=O)C(C)Oc2cc(Cl)c(Cl)cc2Cl)c2ccccc21 (configuration not stated) | inactive | inactive | inactive | – | – | inactive | inactive | inactive | 50 (≈ 95.3 µM) | 50 (≈ 95.3 µM) | – | – | – | – | –
CC(Oc1cc(Cl)c(Cl)cc1Cl)C(=O)N/N=C1/C(=O)Nc2ccccc21 (configuration not stated) | inactive | inactive | inactive | inactive | inactive | inactive | inactive | inactive | – | – | – | – | – | – | –
CC(Oc1cc(Cl)c(Cl)cc1Cl)C(=O)NN1C(=O)CSC1c1ccncc1 (configuration not stated) | inactive | inactive | inactive | – | – | inactive | inactive | inactive | 6.25 (≈ 14 µM) | 6.25 (≈ 14 µM) | – | – | – | – | –
CC(Oc1cc(Cl)c(Cl)cc1Cl)C(=O)NN1C(=O)CSC12C(=O)Nc1ccccc12 (configuration not stated) | inactive | inactive | inactive | – | – | inactive | inactive | inactive | 25 (≈ 51.4 µM) | 50 (≈ 103 µM) | – | – | – | – | –
Cc1ccc(C2SCC(=O)N2NC(=O)C(C)Oc2cc(Cl)c(Cl)cc2Cl)s1 (configuration not stated) | inactive | inactive | inactive | – | – | inactive | inactive | inactive | 12.5 (≈ 26.8 µM) | 12.5 (≈ 26.8 µM) | – | – | – | – | –
